ChEMBL document CHEMBL1177828, “Design and evaluation of 3,6-di(hetero)aryl imidazo[1,2-a]pyrazines as inhibitors of checkpoint and other kinases” (Bioorg Med Chem Lett, 2010)

Tests used:
[1] = molecular target: T1, Aurora kinase A (Homo sapiens) (UniProt O14965); assay: Inhibition of Aur A at 10 uM by mobility shift assay
T1 sequence (whole entry): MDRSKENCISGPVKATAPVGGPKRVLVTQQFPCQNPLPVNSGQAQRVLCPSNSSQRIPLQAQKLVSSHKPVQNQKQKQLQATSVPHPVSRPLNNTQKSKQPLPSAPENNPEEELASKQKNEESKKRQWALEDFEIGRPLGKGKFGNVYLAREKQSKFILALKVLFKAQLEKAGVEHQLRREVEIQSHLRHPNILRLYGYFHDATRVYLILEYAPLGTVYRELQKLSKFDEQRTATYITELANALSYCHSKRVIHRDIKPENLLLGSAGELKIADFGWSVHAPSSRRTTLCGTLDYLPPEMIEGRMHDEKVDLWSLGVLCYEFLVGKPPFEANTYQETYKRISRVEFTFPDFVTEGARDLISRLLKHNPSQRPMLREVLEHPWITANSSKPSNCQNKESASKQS

[2] = molecular target: T2, Serine/threonine-protein kinase D2 (Homo sapiens) (UniProt Q9BZL6); assay: Inhibition of PKD2 at 10 uM by mobility shift assay
T2 sequence (whole entry): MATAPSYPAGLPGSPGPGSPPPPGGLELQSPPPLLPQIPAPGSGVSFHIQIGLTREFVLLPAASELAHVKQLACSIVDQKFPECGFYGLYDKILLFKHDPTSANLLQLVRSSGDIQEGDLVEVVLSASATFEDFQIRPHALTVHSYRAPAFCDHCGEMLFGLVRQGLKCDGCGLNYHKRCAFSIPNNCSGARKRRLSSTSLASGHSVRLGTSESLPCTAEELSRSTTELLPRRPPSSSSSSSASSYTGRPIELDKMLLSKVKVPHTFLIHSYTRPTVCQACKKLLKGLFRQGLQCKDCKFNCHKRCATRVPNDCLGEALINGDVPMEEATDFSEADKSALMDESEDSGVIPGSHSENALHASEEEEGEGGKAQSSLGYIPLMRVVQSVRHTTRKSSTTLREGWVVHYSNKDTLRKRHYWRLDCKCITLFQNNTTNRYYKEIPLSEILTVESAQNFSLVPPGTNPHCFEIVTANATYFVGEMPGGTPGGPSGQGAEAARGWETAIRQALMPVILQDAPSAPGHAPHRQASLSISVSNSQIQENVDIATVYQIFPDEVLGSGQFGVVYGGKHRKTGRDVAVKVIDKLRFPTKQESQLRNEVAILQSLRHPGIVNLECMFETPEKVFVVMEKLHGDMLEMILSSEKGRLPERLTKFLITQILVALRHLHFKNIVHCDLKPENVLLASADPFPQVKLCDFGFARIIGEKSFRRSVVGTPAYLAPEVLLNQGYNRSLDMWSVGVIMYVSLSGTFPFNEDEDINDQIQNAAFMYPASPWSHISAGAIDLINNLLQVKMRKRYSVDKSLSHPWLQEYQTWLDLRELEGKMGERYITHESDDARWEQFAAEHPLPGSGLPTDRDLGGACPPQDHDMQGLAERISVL

[3] = molecular target: T3, Glycogen synthase kinase-3 beta (Homo sapiens, UniProt P49841); assay: Inhibition of GSK3-beta at 10 uM by mobility shift assay
Target sequence in this assay (P49841 whole entry, looked up): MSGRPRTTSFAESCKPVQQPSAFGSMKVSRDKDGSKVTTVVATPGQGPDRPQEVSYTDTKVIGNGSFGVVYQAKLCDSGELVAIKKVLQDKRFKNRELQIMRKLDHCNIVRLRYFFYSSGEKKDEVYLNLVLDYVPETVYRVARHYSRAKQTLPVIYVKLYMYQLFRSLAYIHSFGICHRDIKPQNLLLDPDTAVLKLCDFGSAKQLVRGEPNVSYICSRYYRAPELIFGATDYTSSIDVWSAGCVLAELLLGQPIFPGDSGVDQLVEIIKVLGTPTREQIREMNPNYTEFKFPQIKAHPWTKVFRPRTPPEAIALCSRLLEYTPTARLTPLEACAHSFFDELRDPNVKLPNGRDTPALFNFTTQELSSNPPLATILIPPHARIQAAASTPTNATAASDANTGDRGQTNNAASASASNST

[4] = molecular target: MAP kinase-activated protein kinase 2 (Homo sapiens) (UniProt P49137); assay: Inhibition of MAPKAP2 at 10 uM by mobility shift assay
Chain of MAP kinase-activated protein kinase 2 (Homo sapiens) (P49137 whole entry, looked up): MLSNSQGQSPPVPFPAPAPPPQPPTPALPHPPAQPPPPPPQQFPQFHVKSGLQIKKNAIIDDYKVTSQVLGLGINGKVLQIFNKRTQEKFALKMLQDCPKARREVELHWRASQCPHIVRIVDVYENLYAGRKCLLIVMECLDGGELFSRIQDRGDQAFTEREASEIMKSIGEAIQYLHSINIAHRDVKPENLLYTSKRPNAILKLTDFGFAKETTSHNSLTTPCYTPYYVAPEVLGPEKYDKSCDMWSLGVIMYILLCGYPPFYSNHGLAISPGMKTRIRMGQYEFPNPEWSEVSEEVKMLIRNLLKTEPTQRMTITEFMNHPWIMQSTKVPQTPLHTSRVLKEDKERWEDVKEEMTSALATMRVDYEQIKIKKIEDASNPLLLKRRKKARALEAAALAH

[5] = Inhibition of PKA at 10 uM by mobility shift assay
[6] = molecular target: Mitogen-activated protein kinase 14 (Homo sapiens) (UniProt Q16539); assay: Inhibition of p38alpha at 10 uM by mobility shift assay
Chain of Mitogen-activated protein kinase 14 (Homo sapiens) (Q16539 whole entry): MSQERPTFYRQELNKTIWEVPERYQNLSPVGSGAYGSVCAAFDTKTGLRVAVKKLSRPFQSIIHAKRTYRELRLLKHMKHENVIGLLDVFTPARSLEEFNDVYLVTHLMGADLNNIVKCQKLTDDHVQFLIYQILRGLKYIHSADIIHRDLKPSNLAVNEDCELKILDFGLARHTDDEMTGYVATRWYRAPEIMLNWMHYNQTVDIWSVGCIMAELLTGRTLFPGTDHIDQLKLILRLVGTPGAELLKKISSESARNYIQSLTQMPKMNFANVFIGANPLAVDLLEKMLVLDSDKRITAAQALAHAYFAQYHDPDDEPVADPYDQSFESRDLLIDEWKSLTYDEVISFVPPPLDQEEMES

[7] = molecular target: RAC-alpha serine/threonine-protein kinase (Homo sapiens) (UniProt P31749); assay: Inhibition of AKT1 at 10 uM by mobility shift assay
Chain of RAC-alpha serine/threonine-protein kinase (Homo sapiens) (P31749 whole entry): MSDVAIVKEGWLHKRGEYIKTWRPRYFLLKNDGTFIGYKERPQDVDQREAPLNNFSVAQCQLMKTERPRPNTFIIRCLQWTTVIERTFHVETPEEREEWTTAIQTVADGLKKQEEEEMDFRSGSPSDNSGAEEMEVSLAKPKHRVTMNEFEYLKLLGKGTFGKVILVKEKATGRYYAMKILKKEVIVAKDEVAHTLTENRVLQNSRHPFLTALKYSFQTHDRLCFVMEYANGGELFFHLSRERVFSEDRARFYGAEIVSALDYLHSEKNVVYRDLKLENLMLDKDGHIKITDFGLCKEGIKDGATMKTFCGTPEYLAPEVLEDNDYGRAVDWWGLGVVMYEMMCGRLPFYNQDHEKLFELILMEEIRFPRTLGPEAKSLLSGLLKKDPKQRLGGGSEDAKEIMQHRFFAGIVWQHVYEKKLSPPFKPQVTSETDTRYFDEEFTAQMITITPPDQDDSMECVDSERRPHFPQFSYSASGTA

[8] = molecular target: T3, Glycogen synthase kinase-3 beta; assay: Inhibition of GSK3-beta
Target sequence in this assay (P49841 whole entry): as the sequence (P49841 whole entry, looked up) above

[9] = molecular target: T4, Serine/threonine-protein kinase Chk1 (Homo sapiens, UniProt O14757); assay: Inhibition of CHK1 by DELFIA
T4 sequence (O14757 whole entry): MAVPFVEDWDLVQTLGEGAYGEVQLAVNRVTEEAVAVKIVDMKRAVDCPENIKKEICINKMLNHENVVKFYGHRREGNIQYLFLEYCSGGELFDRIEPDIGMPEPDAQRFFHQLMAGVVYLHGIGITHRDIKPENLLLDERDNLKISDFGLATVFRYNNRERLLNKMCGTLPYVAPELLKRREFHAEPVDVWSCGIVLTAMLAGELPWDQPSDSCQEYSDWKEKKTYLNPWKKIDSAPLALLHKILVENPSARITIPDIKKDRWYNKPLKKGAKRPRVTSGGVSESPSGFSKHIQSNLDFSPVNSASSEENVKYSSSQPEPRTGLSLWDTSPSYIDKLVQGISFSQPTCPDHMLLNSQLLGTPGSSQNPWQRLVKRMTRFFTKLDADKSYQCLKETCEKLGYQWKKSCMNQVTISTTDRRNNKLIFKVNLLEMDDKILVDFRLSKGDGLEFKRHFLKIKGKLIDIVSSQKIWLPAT

[10] = molecular target: Tyrosine-protein kinase ABL1 (Homo sapiens, UniProt P00519); assay: Inhibition of ABL1 by Z-lite assay
Chain of Tyrosine-protein kinase ABL1 (P00519 whole entry): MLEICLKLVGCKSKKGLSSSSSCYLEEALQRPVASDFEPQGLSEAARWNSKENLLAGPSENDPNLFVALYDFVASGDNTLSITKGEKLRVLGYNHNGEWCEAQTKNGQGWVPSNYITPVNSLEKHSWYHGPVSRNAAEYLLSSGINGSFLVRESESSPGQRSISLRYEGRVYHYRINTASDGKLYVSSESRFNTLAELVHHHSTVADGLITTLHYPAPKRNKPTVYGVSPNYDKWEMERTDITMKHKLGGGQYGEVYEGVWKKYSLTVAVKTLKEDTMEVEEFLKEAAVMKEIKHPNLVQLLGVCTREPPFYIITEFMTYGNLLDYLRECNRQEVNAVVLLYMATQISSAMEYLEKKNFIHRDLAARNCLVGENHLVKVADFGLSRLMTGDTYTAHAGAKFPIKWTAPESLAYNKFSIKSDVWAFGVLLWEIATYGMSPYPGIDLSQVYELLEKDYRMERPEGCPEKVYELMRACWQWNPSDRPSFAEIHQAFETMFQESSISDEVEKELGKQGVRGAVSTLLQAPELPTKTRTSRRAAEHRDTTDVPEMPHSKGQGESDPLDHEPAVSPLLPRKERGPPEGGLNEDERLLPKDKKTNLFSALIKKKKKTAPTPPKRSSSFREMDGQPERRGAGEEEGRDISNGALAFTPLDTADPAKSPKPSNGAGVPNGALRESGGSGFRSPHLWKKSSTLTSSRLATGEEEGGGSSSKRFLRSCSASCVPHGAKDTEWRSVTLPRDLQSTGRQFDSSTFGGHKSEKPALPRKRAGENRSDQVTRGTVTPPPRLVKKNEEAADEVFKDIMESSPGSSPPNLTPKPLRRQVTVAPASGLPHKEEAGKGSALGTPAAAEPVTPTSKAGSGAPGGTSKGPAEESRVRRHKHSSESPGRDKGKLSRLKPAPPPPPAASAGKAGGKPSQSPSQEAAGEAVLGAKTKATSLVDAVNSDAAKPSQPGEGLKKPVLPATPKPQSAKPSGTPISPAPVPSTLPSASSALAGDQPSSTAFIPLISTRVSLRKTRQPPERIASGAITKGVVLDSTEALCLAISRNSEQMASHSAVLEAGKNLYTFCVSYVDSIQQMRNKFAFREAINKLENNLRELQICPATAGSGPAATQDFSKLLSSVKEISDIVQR

inhibition [1]	inhibition [2]	inhibition [3]	inhibition [4]	inhibition [5]	inhibition [6]	IC50 [8]	Compound	inhibition [7]	IC50 [9]	IC50 [10]
45%	14%	57%	-6%	-1%	2%		OCc1cccc(-c2cn3c(-c4cn[nH]c4)cnc3cn2)c1			
87%	55%	87%	35%	2%	-2%		c1ccc2c(-c3cnc4cnc(-c5cn[nH]c5)cn34)c[nH]c2c1	11%		
21%	-6%	80%	-2%		2%	3.1 µM	c1ccc(-c2cnc3cnc(-c4ccncc4)cn23)cc1			

Compound	inhibition [1]	inhibition [2]	inhibition [3]	inhibition [4]	inhibition [5]	inhibition [6]	IC50 [8]	inhibition [7]	IC50 [9]	IC50 [10]
c1n[nH]cc1-c1cnc2ncc(-c3cn[nH]c3)n2c1	86%	11%	31%	-2%		1%		-6%	5 µM	0.44 µM
